Reference: ChEMBL document CHEMBL1275576, “In vitro activity of tomopenem (CS-023/RO4908463) against anaerobic bacteria” (Antimicrob Agents Chemother, 2009)

How the values were obtained:
[1] = system: Enterocloster clostridioformis; assay: Antimicrobial activity against Clostridium clostridioforme NCTC 11224 by agar dilution method in presence of 5% laked sheep blood; assay type: functional
[2] = system: Bifidobacterium bifidum; assay: Antimicrobial activity against Bifidobacterium bifidum JCM 1255 by agar dilution method in presence of 5% laked sheep blood; assay type: functional
[3] = system: Bacteroides fragilis; assay: Antimicrobial activity against Bacteroides fragilis GAI 0558 by agar dilution method in presence of 5% laked sheep blood; assay type: functional
[4] = system: Limosilactobacillus fermentum; assay: Antimicrobial activity against Lactobacillus fermentum JCM 1173 by agar dilution method in presence of 5% laked sheep blood; assay type: functional
[5] = system: Capnocytophaga ochracea; assay: Antimicrobial activity against Capnocytophaga ochracea GAI 5586 by agar dilution method in presence of 5% laked sheep blood; assay type: functional
[6] = system: Cutibacterium acnes; assay: Antimicrobial activity against Propionibacterium acnes ATCC 11828 by agar dilution method in presence of 5% laked sheep blood; assay type: functional
[7] = system: Bacteroides fragilis; assay: Antimicrobial activity against Bacteroides fragilis GAI 5562 by agar dilution method in presence of 5% laked sheep blood; assay type: functional
[8] = Antimicrobial activity against Bifidobacterium adolescentis ATCC 15703 by agar dilution method in presence of 5% laked sheep blood; assay type: functional
[9] = Antimicrobial activity against Finegoldia magna ATCC 29328 by agar dilution method in presence of 5% laked sheep blood; assay type: functional
[10] = system: Bifidobacterium breve; assay: Antimicrobial activity against Bifidobacterium breve ATCC 15700 by agar dilution method in presence of 5% laked sheep blood; assay type: functional
[11] = system: Prevotella bivia; assay: Antimicrobial activity against Prevotella bivia ATCC 29303 by agar dilution method in presence of 5% laked sheep blood; assay type: functional; settings: DSM 20514
[12] = system: Streptococcus intermedius; assay: Antimicrobial activity against Streptococcus intermedius ATCC 27335 by agar dilution method in presence of 5% laked sheep blood; assay type: functional
[13] = system: Fusobacterium necrophorum; assay: Antimicrobial activity against Fusobacterium necrophorum ATCC 25286 by agar dilution method in presence of 5% laked sheep blood; assay type: functional
[14] = system: Gemella morbillorum; assay: Antimicrobial activity against Gemella morbillorum ATCC 27824 by agar dilution method in presence of 5% laked sheep blood; assay type: functional
[15] = Antimicrobial activity against Desulfovibrio piger DSM 749 by agar dilution method in presence of 5% laked sheep blood; assay type: functional, Desulfovibrio piger ATCC 29098
[16] = system: Bacteroides fragilis; assay: Antimicrobial activity against Bacteroides fragilis GAI 10150 by agar dilution method in presence of 5% laked sheep blood; assay type: functional
[17] = system: Campylobacter gracilis; assay: Antimicrobial activity against Campylobacter gracilis JCM 8538 by agar dilution method in presence of 5% laked sheep blood; assay type: functional
[18] = system: Limosilactobacillus reuteri; assay: Antimicrobial activity against Lactobacillus reuteri JCM 1112 by agar dilution method in presence of 5% laked sheep blood; assay type: functional
[19] = Antimicrobial activity against Parabacteroides distasonis ATCC 8503 by agar dilution method in presence of 5% laked sheep blood; assay type: functional
[20] = system: Prevotella intermedia; assay: Antimicrobial activity against Prevotella intermedia ATCC 25611 by agar dilution method in presence of 5% laked sheep blood; assay type: functional
[21] = system: Bifidobacterium pseudolongum; assay: Antimicrobial activity against Bifidobacterium pseudolongum ATCC 25526 by agar dilution method in presence of 5% laked sheep blood; assay type: functional
[22] = system: Bacteroides fragilis; assay: Antimicrobial activity against carbapenemase-producing Bacteroides fragilis GAI 30079 by agar dilution method in presence of 5% laked sheep blood; assay type: functional
[23] = system: Bacteroides fragilis; assay: Antimicrobial activity against Bacteroides fragilis NCTC 10581 by agar dilution method in presence of 5% laked sheep blood; assay type: functional
[24] = system: Parvimonas micra; assay: Antimicrobial activity against Parvimonas micra VPI 5464-1 by agar dilution method in presence of 5% laked sheep blood; assay type: functional
[25] = system: Porphyromonas asaccharolytica; assay: Antimicrobial activity against Porphyromonas asaccharolyticus ATCC 25260 by agar dilution method in presence of 5% laked sheep blood; assay type: functional; settings: DSM 20707
[26] = system: Atopobium parvulum; assay: Antimicrobial activity against Atopobium parvulum VPI 0546 by agar dilution method in presence of 5% laked sheep blood; assay type: functional; settings: Lancefieldella parvula
[27] = system: Hoylesella oralis; assay: Antimicrobial activity against Prevotella oralis ATCC 33269 by agar dilution method in presence of 5% laked sheep blood; assay type: functional
[28] = system: Bacteroides thetaiotaomicron; assay: Antimicrobial activity against Bacteroides thetaiotaomicron ATCC 29741 by agar dilution method in presence of 5% laked sheep blood; assay type: functional
[29] = Antimicrobial activity against Bifidobacterium longum subsp. longum ATCC 15707 by agar dilution method in presence of 5% laked sheep blood; assay type: functional
[30] = system: Peptoniphilus indolicus; assay: Antimicrobial activity against Peptoniphilus indolicus GAI 0915 by agar dilution method in presence of 5% laked sheep blood; assay type: functional
[31] = system: Veillonella parvula; assay: Antimicrobial activity against Veillonella parvula ATCC 10790 by agar dilution method in presence of 5% laked sheep blood; assay type: functional
[32] = system: Prevotella oris; assay: Antimicrobial activity against Prevotella oris ATCC 33573 by agar dilution method in presence of 5% laked sheep blood; assay type: functional; settings: Segatella oris
[33] = system: Peptoniphilus asaccharolyticus; assay: Antimicrobial activity against Peptoniphilus asaccharolyticus WAL 3218 by agar dilution method in presence of 5% laked sheep blood; assay type: functional
[34] = system: Bacteroides fragilis; assay: Antimicrobial activity against carbapenemase-producing Bacteroides fragilis GAI 30144 by agar dilution method in presence of 5% laked sheep blood; assay type: functional
[35] = system: Desulfovibrio desulfuricans; assay: Antimicrobial activity against Desulfovibrio desulfuricans ATCC 29577 by agar dilution method in presence of 5% laked sheep blood; assay type: functional
[36] = system: Campylobacter ureolyticus; assay: Antimicrobial activity against Bacteroides ureolyticus NCTC 10941 by agar dilution method in presence of 5% laked sheep blood; assay type: functional
[37] = system: Anaerococcus prevotii; assay: Antimicrobial activity against Anaerococcus prevotii ATCC 9321 by agar dilution method in presence of 5% laked sheep blood; assay type: functional
[38] = system: Bacteroides uniformis; assay: Antimicrobial activity against Bacteroides uniformis ATCC 8492 by agar dilution method in presence of 5% laked sheep blood; assay type: functional
[39] = system: Phocaeicola vulgatus; assay: Antimicrobial activity against Bacteroides vulgatus GAI 0673 by agar dilution method in presence of 5% laked sheep blood; assay type: functional
[40] = system: Bacteroides fragilis; assay: Antimicrobial activity against Bacteroides fragilis ATCC 25285 by agar dilution method in presence of 5% laked sheep blood; assay type: functional; settings: NCTC 9343
[41] = system: Bacteroides heparinolyticus; assay: Antimicrobial activity against Prevotella heparinolytica ATCC 35895 by agar dilution method in presence of 5% laked sheep blood; assay type: functional
[42] = system: Bacteroides ovatus; assay: Antimicrobial activity against Bacteroides ovatus ATCC 8483 by agar dilution method in presence of 5% laked sheep blood; assay type: functional
[43] = system: Fusobacterium varium; assay: Antimicrobial activity against Fusobacterium varium ATCC 8501 by agar dilution method in presence of 5% laked sheep blood; assay type: functional
[44] = system: Thomasclavelia ramosa; assay: Antimicrobial activity against Clostridium ramosum ATCC 25582 by agar dilution method in presence of 5% laked sheep blood; assay type: functional
[45] = system: Lactobacillus salivarius; assay: Antimicrobial activity against Lactobacillus salivarius subsp. salivarius JCM 1231 by agar dilution method in presence of 5% laked sheep blood; assay type: functional; settings: Ligilactobacillus salivarius
[46] = system: Propionibacterium granulosum; assay: Antimicrobial activity against Propionibacterium granulosum ATCC 25564 by agar dilution method in presence of 5% laked sheep blood; assay type: functional; settings: Cutibacterium granulosum
[47] = system: Bilophila wadsworthia; assay: Antimicrobial activity against Bilophila wadsworthia WAL 7959 by agar dilution method in presence of 5% laked sheep blood; assay type: functional

C[C@@H](O)[C@H]1C(=O)N2C(C(=O)O)=C(S[C@H]3C[C@@H](C(=O)N4CC[C@H](NC(=O)CNC(=N)N)C4)N(C)C3)[C@H](C)[C@H]12 [TOMOPENEM] showed an MIC [1] of 0.03 µg/mL, an MIC [2] of 0.06 µg/mL and an MIC [3] of 1 µg/mL. It also gave an MIC [4] of 0.125 µg/mL, an MIC [5] of 0.06 µg/mL and an MIC [6] of 1 µg/mL. The MIC [7] was 0.25 µg/mL, the MIC [8] was 0.125 µg/mL and the MIC [9] was 0.125 µg/mL. It also gave an MIC [10] of 1 µg/mL, an MIC [11] of 0.5 µg/mL and an MIC [12] of 0.125 µg/mL. The MIC [13] was ≤ 0.015 µg/mL, the MIC [14] was 0.03 µg/mL and the MIC [15] was 0.03 µg/mL. The MIC [16] was 4 µg/mL, the MIC [17] was 0.06 µg/mL and the MIC [18] was 0.125 µg/mL. The MIC [19] was 0.25 µg/mL, the MIC [20] was 0.06 µg/mL and the MIC [21] was 0.125 µg/mL. The MIC [22] was > 128 µg/mL, the MIC [23] was 0.125 µg/mL and the MIC [24] was 0.125 µg/mL. The MIC [25] was ≤ 0.015 µg/mL, the MIC [26] was 0.5 µg/mL and the MIC [27] was 0.06 µg/mL. For the same compound, the MIC [28] was 0.5 µg/mL, the MIC [29] was 0.5 µg/mL and the MIC [30] was ≤ 0.015 µg/mL. The MIC [31] was 0.03 µg/mL, the MIC [32] was 0.125 µg/mL and the MIC [33] was 0.03 µg/mL. For the same compound, the MIC [34] was > 128 µg/mL, the MIC [35] was 0.25 µg/mL and the MIC [36] was 0.03 µg/mL. For the same compound, the MIC [37] was 0.125 µg/mL, the MIC [38] was 0.25 µg/mL and the MIC [39] was 0.25 µg/mL. For the same compound, the MIC [40] was 0.25 µg/mL, the MIC [41] was 0.125 µg/mL and the MIC [42] was 0.5 µg/mL. The MIC [43] was 0.5 µg/mL, the MIC [44] was 0.5 µg/mL and the MIC [45] was 0.5 µg/mL. It also gave an MIC [46] of 0.5 µg/mL and an MIC [47] of 0.125 µg/mL.
